This passage reports IC50 results from ChEMBL document CHEMBL4138197, “Design, synthesis and pharmacological evaluation of N-(5-chloro-2,4-dihydroxybenzoyl)-(R)-N-arylmethyl-1,2,3,4-tetrahydro-3-isoquinolinecarboxamides as potent Hsp90 inhibitors” (Eur J Med Chem, 2018).

pIC50: −log10 of the molar value. Some results are limits rather than exact numbers.

In one assay the test system is A549. As to the kind of experiment: Antiproliferative activity against human A549 cells after 72 hrs by SRB assay. Format: functional, cell-based. The settings on record: A549, 72 h. (In general: The SRB assay estimates cell density from bound dye.)
The next assay relates to MDA-MB-231. The assay is described as follows: Antiproliferative activity against human MDA-MB-231 cells after 72 hrs by SRB assay. Format: functional, cell-based. The note with it: MDA-MB-231, 72 h.

As a reminder, the pIC50 is the IC50 on a negative log10 scale, so that one unit is a factor of ten. Higher therefore signals a small IC50. `O=C(NCc1ccc2c(c1)CCO2)[C@H]1Cc2ccccc2CN1C(=O)c1cc(Cl)c(O)cc1O`: the pIC50 with A549 is 5.97; in the assay on MDA-MB-231, 6.05.
The matching figures for `O=C(NCc1cccc([N+](=O)[O-])c1)[C@H]1Cc2ccccc2CN1C(=O)c1cc(Cl)c(O)cc1O`: 6.19 and 6.10.
As to `O=C(NCc1cccc(Cl)c1)[C@H]1Cc2ccccc2CN1C(=O)c1cc(Cl)c(O)cc1O`, the figures for the negative logarithm of the IC50 (pIC50) with A549 and with MDA-MB-231 were 5.74 and 5.71, respectively.
The like results for `O=C(NCc1ccccc1Cl)[C@H]1Cc2ccccc2CN1C(=O)c1cc(Cl)c(O)cc1O` were, in that order, 5.84 and 5.77.
For `O=C(NCc1ccc(OC(F)(F)F)cc1)[C@H]1Cc2ccccc2CN1C(=O)c1cc(Cl)c(O)cc1O`, the negative logarithm of the IC50 (pIC50) in the assay on A549 is 5.67; in the assay with MDA-MB-231 it was 5.65.
Regarding `N#Cc1cccc(CNC(=O)[C@H]2Cc3ccccc3CN2C(=O)c2cc(Cl)c(O)cc2O)c1`, the pIC50 is 6.30 in the assay with A549 and 6.19 with MDA-MB-231.
The matching figures for `O=C(NCc1ccccc1)[C@H]1Cc2ccccc2CN1C(=O)c1cc(Cl)c(O)cc1O`: 5.78 and 5.95.
On to `N#Cc1ccc(CNC(=O)[C@H]2Cc3ccccc3CN2C(=O)c2cc(Cl)c(O)cc2O)nc1`, for which the pIC50 is 6.21 in the assay with A549 and 6.28 with MDA-MB-231.
In the case of `COc1ccc(CNC(=O)[C@H]2Cc3ccccc3CN2C(=O)c2cc(Cl)c(O)cc2O)cc1OC`, the pIC50 with A549 was 5.77; with MDA-MB-231, 5.78.
`O=C(NCc1ccc([N+](=O)[O-])cc1)[C@H]1Cc2ccccc2CN1C(=O)c1cc(Cl)c(O)cc1O`: the figures for the negative-log IC50 (pIC50) with A549 and in the assay on MDA-MB-231 were 6.27 and 6.40, respectively.
The like results for `O=C(NCc1ccccn1)[C@H]1Cc2ccccc2CN1C(=O)c1cc(Cl)c(O)cc1O` were, in that order, 6.05 and 6.20.
The matching figures for `COC1=C2C[C@@H](C)C[C@H](OC)[C@H](O)[C@@H](C)/C=C(\C)[C@H](OC(N)=O)[C@@H](OC)/C=C\C=C(/C)C(=O)NC(=CC1=O)C2=O` [GELDANAMYCIN]: 7.00 and 7.22.
The like results for `Cc1cccc(CNC(=O)[C@H]2Cc3ccccc3CN2C(=O)c2cc(Cl)c(O)cc2O)c1` were, in that order, 6.02 and 5.75.
With `NS(=O)(=O)c1ccc(CNC(=O)[C@H]2Cc3ccccc3CN2C(=O)c2cc(Cl)c(O)cc2O)cc1`, the pIC50 with A549 and in the assay with MDA-MB-231 was less than 5.00 throughout.
`O=C(NCc1cccc(Cl)c1Cl)[C@H]1Cc2ccccc2CN1C(=O)c1cc(Cl)c(O)cc1O`: the pIC50 in the assay with A549 was 5.95; in the assay on MDA-MB-231, 5.68.
Consider `N#Cc1ccc(CNC(=O)[C@H]2Cc3ccccc3CN2C(=O)c2cc(Cl)c(O)cc2O)cn1`, for which the values for the negative-log IC50 (pIC50) in the assay on A549 and in the assay with MDA-MB-231 were 5.56 and 5.68, respectively.
The matching figures for `O=C(NCc1cccnc1)[C@H]1Cc2ccccc2CN1C(=O)c1cc(Cl)c(O)cc1O`: 5.82 and 6.09.
In the case of `O=C(NCc1ccc(Cl)cc1Cl)[C@H]1Cc2ccccc2CN1C(=O)c1cc(Cl)c(O)cc1O`, the pIC50 is 6.19 in the assay on A549 and 6.02 with MDA-MB-231.
The like results for `COc1cc(CNC(=O)[C@H]2Cc3ccccc3CN2C(=O)c2cc(Cl)c(O)cc2O)ccc1O` were, in that order, 5.58 and 5.67.
Take `COc1cccc(CNC(=O)[C@H]2Cc3ccccc3CN2C(=O)c2cc(Cl)c(O)cc2O)c1`: the pIC50 in the assay with A549 was 5.81; with MDA-MB-231, 5.74.
The matching figures for `CN(C)c1ccc(CNC(=O)[C@H]2Cc3ccccc3CN2C(=O)c2cc(Cl)c(O)cc2O)cc1`: 6.35 and 6.40.
The like results for `N#Cc1ccc(CNC(=O)[C@H]2Cc3ccccc3CN2C(=O)c2cc(Cl)c(O)cc2O)cc1` were, in that order, 6.46 and 6.46.
For the molecule `O=C(NCc1ccco1)[C@H]1Cc2ccccc2CN1C(=O)c1cc(Cl)c(O)cc1O`, the pIC50 with A549 is 6.05; in the assay on MDA-MB-231, 6.30.
As to `CS(=O)(=O)c1cccc(CNC(=O)[C@H]2Cc3ccccc3CN2C(=O)c2cc(Cl)c(O)cc2O)c1`, the pIC50 with A549 is less than 5.00; in the assay with MDA-MB-231, 5.41.
Consider `O=C(NCc1ccc2c(c1)OCO2)[C@H]1Cc2ccccc2CN1C(=O)c1cc(Cl)c(O)cc1O`, for which the pIC50 was 6.19 in the assay with A549 and 6.15 with MDA-MB-231.
For the molecule `Cc1ccc(CNC(=O)[C@H]2Cc3ccccc3CN2C(=O)c2cc(Cl)c(O)cc2O)cc1`, the pIC50 in the assay with A549 is 6.28; in the assay on MDA-MB-231, 6.22.
In the case of `Cc1ccccc1CNC(=O)[C@H]1Cc2ccccc2CN1C(=O)c1cc(Cl)c(O)cc1O`, the results for the pIC50 with A549 and in the assay on MDA-MB-231 were 6.19 and 5.84, respectively.
The matching figures for `COc1cc(CNC(=O)[C@H]2Cc3ccccc3CN2C(=O)c2cc(Cl)c(O)cc2O)cc(OC)c1OC`: 5.58 and 5.66.
The like results for `COc1ccccc1CNC(=O)[C@H]1Cc2ccccc2CN1C(=O)c1cc(Cl)c(O)cc1O` were, in that order, 5.94 and 6.02.
The matching figures for `O=C(NCc1ccc(Cl)c(Cl)c1)[C@H]1Cc2ccccc2CN1C(=O)c1cc(Cl)c(O)cc1O`: 5.84 and 5.79.
For `O=C(NCc1ccc(Cl)cc1)[C@H]1Cc2ccccc2CN1C(=O)c1cc(Cl)c(O)cc1O`, the pIC50 in the assay with A549 was 6.12; in the assay with MDA-MB-231, 6.11.
The matching figures for `O=C(NCc1cccc2ccccc12)[C@H]1Cc2ccccc2CN1C(=O)c1cc(Cl)c(O)cc1O`: 5.56 and 5.62.
The matching figures for `COc1ccc(CNC(=O)[C@H]2Cc3ccccc3CN2C(=O)c2cc(Cl)c(O)cc2O)cc1`: 5.97 and 6.05.
The like results for `CS(=O)(=O)c1ccc(CNC(=O)[C@H]2Cc3ccccc3CN2C(=O)c2cc(Cl)c(O)cc2O)cc1` were, in that order, 5.58 and 6.02.
As to `COc1ccc(CNC(=O)[C@H]2Cc3ccccc3CN2C(=O)c2cc(Cl)c(O)cc2O)c(OC)c1`, the pIC50 is 5.85 in the assay with A549 and 5.94 in the assay on MDA-MB-231.
